Data published in PMC7492092 (European journal of medicinal chemistry, 2020).

Legend:
[1] = Microsomal stability assay, human liver microsomes; assay type: in vitro ADME; settings: pre-incubation with Cobi vs without
[2] = Microsomal stability assay, mouse liver microsomes; assay type: in vitro ADME; settings: pre-incubation with Cobi vs without
Cytotoxicity assay = assay type: cell-based; settings: human, TZM-GFP cells

Row | increase of half-life with Cobicistat (HLM) [1] [fold] | increase of half-life with Cobicistat (MLM) [2] [fold] | SMILES | CC50 at 72 h (Cytotoxicity assay) [µM]
1 | 62 | 74 | CN(C(=O)[C@H](Cc1ccccc1)NC(=O)Cc1c[nH]c2ccccc12)c1ccc(Br)cc1 [Compd 32, (S)-2-(2-(1H-indol-3-yl)acetamido)-N-(4-bromophenyl)-N-methyl-3-phenylpropanamide] | 
2 |  |  | CN(C(=O)[C@H](Cc1ccccc1)NC(=O)Cc1c[nH]c2ccccc12)c1ccc(Cl)nc1 [Compd 37, (S)-2-(2-(1H-indol-3-yl)acetamido)-N-(6-chloropyridin-3-yl)-N-methyl-3-phenylpropanamide] | 57 ± 0.3
